Assay results published in patent US10703749B2, “P2X7 modulators” (Janssen Pharmaceutica NV, priority 2013, dated 2020).

Target: P2X7 (Homo sapiens (Human), UniProt Q99572)
Assay: P2X7 antagonism in human PBMCs (IL-1β release, ELISA)
Type: cell-based
Details: 10 μM test compound, LPS 30 ng/ml + Bz-ATP 0.5 mM
Protocol: Human blood was collected using a blood donor program. PBMCs were isolated from blood using a Ficoll density gradient technique. Briefly, blood was laid on Ficoll solution and centrifuged at RT for 20 minutes at 2000 rpm. The buffy layer (between red blood cells and plasma) was carefully collected by aspiration, washed with PBS and centrifuged again at 1500 rpm for 15 minutes. The resulting cell pellet was washed and plated on 96 well-plates for experiments. For the Mouse/Human Whole Blood experiments, 150 μl of either mouse or human blood was platted on 96 well-plates. Lipopolysaccharide (LPS) (30 ng/ml) was added to each well and incubated for 1 hour. Test compounds were then added and incubated for 30 minutes. The P2X7 agonist, 2′(3′)-O-(4-benzoylbenzoyl) adenosine 5′-triphosphate (Bz-ATP) was then added at a final concentration of 0.5 mM (PBMC) or 1 mM (blood). Cells were incubated for an additional 1.5 hours. At that point, supernatant was collected and stored for IL-1β assay using manufacturer's protocol for enzyme-linked immunosorbent assay (ELISA). Data was expressed as percent control, where control is defined as the difference in IL-1β release in LPS+Bz-ATP samples and LPS only samples. Data was plotted as response (% control) versus concentration to generate IC50 values.

P2X7, sequence (Q99572 whole entry): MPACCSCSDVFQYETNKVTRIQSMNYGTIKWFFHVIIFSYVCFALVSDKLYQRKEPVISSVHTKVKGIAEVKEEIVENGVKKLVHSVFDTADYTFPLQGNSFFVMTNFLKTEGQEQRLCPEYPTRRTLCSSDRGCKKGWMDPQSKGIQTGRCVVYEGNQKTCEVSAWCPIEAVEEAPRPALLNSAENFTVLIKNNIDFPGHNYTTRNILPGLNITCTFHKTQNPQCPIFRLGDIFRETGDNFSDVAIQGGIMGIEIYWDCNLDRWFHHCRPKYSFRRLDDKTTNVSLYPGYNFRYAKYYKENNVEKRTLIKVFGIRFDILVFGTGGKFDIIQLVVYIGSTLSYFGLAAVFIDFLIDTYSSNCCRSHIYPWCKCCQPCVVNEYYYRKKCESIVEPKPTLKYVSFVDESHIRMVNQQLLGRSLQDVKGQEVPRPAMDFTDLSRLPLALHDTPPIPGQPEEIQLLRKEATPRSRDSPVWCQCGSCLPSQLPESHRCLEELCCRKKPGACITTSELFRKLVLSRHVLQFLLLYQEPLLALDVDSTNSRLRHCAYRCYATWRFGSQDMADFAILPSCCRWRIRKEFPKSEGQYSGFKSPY

## CC1c2nn(COCC[Si](C)(C)C)c(-c3ncc(F)cn3)c2CCN1C(=O)c1cccc(C(F)(F)F)c1Cl (stereo not shown) [Example 303, (2-chloro-3-(trifluoromethyl)phenyl)(3-(5-fluoropyrimidin-2-yl)-7-methyl-2-((2-(trimethylsilyl)ethoxy)methyl)-4,5-dihydro-2H-pyrazolo[3,4-c]pyridin-6(7H)-yl)methanone]
  PBMC 10 μM (% control): −1.6 % control

## Cc1cc(C)nc(-n2nnc3c2CCN(C(=O)c2cccc(C(F)(F)F)c2Cl)C3C)n1 (stereo not shown) [Example 253, (2-Chloro-3-(trifluoromethyl)phenyl)(1-(4,6-dimethylpyrimidin-2-yl)-4-methyl-6,7-dihydro-1H-[1,2,3]triazolo[4,5-c]pyridin-5(4H)-yl)methanone]
  PBMC 10 μM (% control): −2.6 % control

## Cc1nc2c(n1-c1ccccc1)CCN(C(=O)c1cccc(Cl)c1Cl)C2 [Example 331, (2,3-dichlorophenyl)(2-methyl-1-phenyl-6,7-dihydro-1H-imidazo[4,5-c]pyridin-5 (4H)-yl)methanone]
  PBMC 10 μM (% control): −11.0 % control

## Cc1c(C(=O)N2Cc3nnn(C4=NN=CC4)c3CC2C)cccc1C(F)(F)F (stereo not shown) [Example 154, (6-methyl-1-(1H-pyrazol-3-yl)-6,7-dihydro-1H-[1,2,3]triazolo[4,5-c]pyridin-5(4H)-yl)(2-methyl-3-(trifluoromethyl)phenyl)methanone]
  PBMC 10 μM (% control): −0.6 % control
